According to the supplement of paper PMC11208160:

Experiment: recombinant UMI read abundance after kanamycin selection (control-corrected) (log10(CPM+1)); higher = more efficient recombination; extreme values may be limits of the assay; sequences stand for … in AGTGCAGAGAAAATCGGCCAGTTTTCTCTGCCTGCAGTCCGCATGCCGTGGGACCCCTTGGGTTCTAACCTGTTGCCTAGATTTATGCAGCGGACTGCCTTTCTCCCAAAGTGATAAACCGG…AGGTTGGTTTCACT; site = the 11-nt donor
Procedure, shortened: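 Reported values are log10(CPM+1) from a pooled Escherichia coli screen of donor and donor-binding-loop pairs for the IS621 bridge recombinase. Selection used IPTG (0.07 mM) plus kanamycin, against unselected plating, each in two replicates. Recombinant UMIs were amplified across the donor–target junction, sequenced, converted to CPM, averaged over replicates and scaled by control-derived factors.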
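Further: IS621 bridge recombinase in Escherichia coli cells against a fixed T5 target plasmid.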

Row | Sequence | recombinant UMI read abundance (log10)
1 | GTGCTACCATGGACCGGTTTTCCCGGTAATCCGTATTTGCT (site ATGCTACCTAG) | 0
2 | GTGCTACCATGGACCGGTTTTCCCGGTAATCCGTATTTGCT (site CTGCTACCTAG) | 0
3 | GTGCTACCATGGACCGGTTTTCCCGGTAATCCGTATTTGCT (site GTGCTACCTAG) | 0.0199
4 | GTGCTACCATGGACCGGTTTTCCCGGTAATCCGTATTTGCT (site TTGCTACCTAG) | 0
5 | GTGCTCTCATGGACCGGTTTTCCCGGTAATCCGTATTTGTG (site GTGCTCTCTCA) | 1.28
6 | GTGCTGCCATGGACCGGTTTTCCCGGTAATCCGTATTTGTG (site GTGCTGCCTCA) | 0.251
7 | GTGCTGGCATGGACCGGTTTTCCCGGTAATCCGTATTTGGT (site GTGCTGGCTAC) | 0.476
8 | GTGCTTGCATGGACCGGTTTTCCCGGTAATCCGTATTTGGT (site GTGCATGCTAC) | 0.0165
9 | GTGCTTGCATGGACCGGTTTTCCCGGTAATCCGTATTTGGT (site GTGCCTGCTAC) | 0.269
10 | GTGCTTGCATGGACCGGTTTTCCCGGTAATCCGTATTTGGT (site GTGCGTGCTAC) | 0.0221
11 | GTGCTTGCATGGACCGGTTTTCCCGGTAATCCGTATTTGGT (site GTGCTTGCTAC) | 1.07
12 | GTGGAAACATGGACCGGTTTTCCCGGTAATCCGTATTTGCA (site ATGGAAACTTG) | 1.42
13 | GTGGAAACATGGACCGGTTTTCCCGGTAATCCGTATTTGCA (site CTGGAAACTTG) | 1.56
14 | GTGGAAACATGGACCGGTTTTCCCGGTAATCCGTATTTGCA (site GTGGAAACTTG) | 2.37
15 | GTGGAAACATGGACCGGTTTTCCCGGTAATCCGTATTTGCA (site TTGGAAACTTG) | 2.14
16 | GTGGAAGCATGGACCGGTTTTCCCGGTAATCCGTATTTGTG (site GTGGAAGCTCA) | 2.35
17 | GTGGAAGCATGGACCGGTTTTCCCGGTAATCCGTATTTGTG (site GTGGACGCTCA) | 0.582
18 | GTGGAAGCATGGACCGGTTTTCCCGGTAATCCGTATTTGTG (site GTGGAGGCTCA) | 1.53
19 | GTGGAAGCATGGACCGGTTTTCCCGGTAATCCGTATTTGTG (site GTGGATGCTCA) | 0.605

Row | Sequence | recombinant UMI read abundance (log10)
20 | GTGGAGCCATGGACCGGTTTTCCCGGTAATCCGTATTTGTT (site GTGGAGCCTAA) | 0.012
21 | GTGGAGGCATGGACCGGTTTTCCCGGTAATCCGTATTTGTT (site GTGGAGGCTAA) | 1.58
22 | GTGGAGGCATGGACCGGTTTTCCCGGTAATCCGTATTTGTT (site GTGGAGGCTCA) | 0.524
23 | GTGGAGGCATGGACCGGTTTTCCCGGTAATCCGTATTTGTT (site GTGGAGGCTGA) | 2.66
24 | GTGGAGGCATGGACCGGTTTTCCCGGTAATCCGTATTTGTT (site GTGGAGGCTTA) | 0.938
25 | GTGGATGCATGGACCGGTTTTCCCGGTAATCCGTATTTGGT (site GTGAATGCTAC) | 2.1
26 | GTGGATGCATGGACCGGTTTTCCCGGTAATCCGTATTTGGT (site GTGCATGCTAC) | 0.00775
27 | GTGGATGCATGGACCGGTTTTCCCGGTAATCCGTATTTGGT (site GTGGATGCTAC) | 2.2
28 | GTGGATGCATGGACCGGTTTTCCCGGTAATCCGTATTTGGT (site GTGTATGCTAC) | 1.03
29 | GTGGCGCCATGGACCGGTTTTCCCGGTAATCCGTATTTGTA (site GTGGCGCCTTA) | 0.00916
30 | GTGGCTCCATGGACCGGTTTTCCCGGTAATCCGTATTTGTT (site GTGGCTCCTAA) | 0.00981
31 | GTGGGTACATGGACCGGTTTTCCCGGTAATCCGTATTTGAC (site GTAGGTACTGT) | 2.16
32 | GTGGGTACATGGACCGGTTTTCCCGGTAATCCGTATTTGAC (site GTCGGTACTGT) | 0
33 | GTGGGTACATGGACCGGTTTTCCCGGTAATCCGTATTTGAC (site GTGGGTACTGT) | 2.91
34 | GTGGGTACATGGACCGGTTTTCCCGGTAATCCGTATTTGAC (site GTTGGTACTGT) | 2.72
35 | GTGGGTACATGGACCGGTTTTCCCGGTAATCCGTATTTGTT (site GTGGGTACTAA) | 1.15
36 | GTGGTCGCATGGACCGGTTTTCCCGGTAATCCGTATTTGGC (site GTGGTCGCTGC) | 2.91
37 | GTGGTGGCATGGACCGGTTTTCCCGGTAATCCGTATTTGTG (site GTGGAGGCTCA) | 0.789
38 | GTGGTGGCATGGACCGGTTTTCCCGGTAATCCGTATTTGTG (site GTGGCGGCTCA) | 0.0357
